Test results: patent US20230201030A1, “DISSOLVABLE MEDICAL DEVICE FOR DRUGS DELIVERY” (Alcon Inc., priority 2021, published 2023)

Test system: pupil
Test: Response behavior of phenylephrine (pupil dilation) delivered in the presence/absence of the polymeric film
Format: in vivo
Conditions: 0.005% phenylephrine with polymeric film vs 2.5% phenylephrine alone
Description: In the groups with such treatments, a 0.1-0.2 g lens was applied to the center of the cornea. 1 drop of dilating agent (phenylephrine) of predetermined concentration was applied at t(0). Size of pupil was measured using a pre-measured device for reference and followed up using the same scale.

## CNC[C@H](O)c1cccc(O)c1 [phenylephrine, Phenylephrine]
  reduction of drug load at similar efficacy: 500 fold
